# Reference: PMC8308845, “Discovery of Novel Chemical Series of OXA-48 β-Lactamase Inhibitors by High-Throughput Screening” (Pharmaceuticals, 2021)
# Columns and labels:
# [1] = biological target: T1, OXA-48 (Klebsiella pneumoniae, UniProt Q6XEC0); assay: OXA-48 primary enzymatic assay (nitrocefin substrate, fluorescence-quenching readout); format: biochemical; conditions: dose–response, median of triplicate wells; 15 min preincubation, 25 µM nitrocefin
# T1 construct: made in house; host or cells: E. coli BL21(DE3), T7 expression system
# T1 sequence (Q6XEC0 23-265, looked up): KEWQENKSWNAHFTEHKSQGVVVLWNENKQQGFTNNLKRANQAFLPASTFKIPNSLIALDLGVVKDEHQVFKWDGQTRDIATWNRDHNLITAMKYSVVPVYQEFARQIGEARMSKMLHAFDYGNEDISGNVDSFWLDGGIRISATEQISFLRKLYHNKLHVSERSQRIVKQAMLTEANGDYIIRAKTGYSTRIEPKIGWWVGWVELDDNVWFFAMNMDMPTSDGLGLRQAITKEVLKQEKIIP
# Protocol: After an initial pilot run (three plates, consisting of 960 randomly selected compounds), the primary screening of the subset plates was carried out at 20 µM in single point against OXA-48 enzyme in a nitrocefin-based assay, using the fluorescence-quenching readout. This enzymatic assay employs the cephalosporin nitrocefin as OXA-48 substrate and takes advantage of the fluorescent properties of white microtiter plates. Chromogenic nitrocefin is hydrolyzed by β-lactamases to yield a product with increased absorbance properties (~495 nm) that quenches the plate fluorescence by absorbing the plate’s emission light. In this assay, test compounds that inhibit OXA-48 catalytic activity are predicted to reduce nitrocefin quenching of plate fluorescence, resulting in a quantitative increase in well fluorescence (ON-system for inhibitors). The nitrocefin-based epi-absorbance readout system has been successfully applied in HTS campaigns on other β-lactamases, such as IMP-1 and VIM-2, with the identification of inhibitors belonging to novel scaffolds displaying a favourable degree of selectivity and sub-micromolar potency.
# The screening results were expressed as activity percent. […] Overall, the primary assay robustness was good, with Robust Z Prime factor (RZ′) equal to 0.86.
# In total, 256 active molecules (125 from the subset and 131 from the full set) were then assayed in dose–response at eight concentrations from 60 to 0.002 µM with interplate triplicate data points.
# The blaOXA gene coding for the OXA-48 ß-lactamase, originally cloned from the K. pneumonia 11978 (a clinical isolate from Istanbul Faculty Hospital, Istanbul, Turkey) was overexpressed via a T7 expression system in E. coli BL21(DE3), and its product, native protein, (final yield of 30 mg/L of culture) was subjected to several purification steps, including ion-exchange chromatography with Q-Sepharose and 20 mM Tris-HCl buffer (pH 9.0), followed by chromatography with S-Sepharose columns and 100 mM sodium phosphate buffer (pH 5.8). Elution of the beta-lactamase was performed with a K2SO4 gradient. Peaks of beta-lactamase activity were concentrated and were dialyzed with 100 mM phosphate buffer (pH 7.0). The OXA-48 enzyme was purified to homogeneity (with a degree of purity around 95.4%.)-as measured by 12% SDS PAGE [23]. OXA-48 protein stock solution (2 mg/mL) was finally prepared in 20 mM Hepes (pH 8,1). OXA-48 β-lactamase specific activity was measured by following the hydrolysis of 100 μM nitrocefin (ε: 17,000 M-1 cm^−1 at 482 nm; Δε: 15,000 M-1 cm^−1 at 482 nm) and corresponding to 60.45 μmoles min^−1 mg^−1 of OXA-48 (kcat = 28.85 s^−1) enzyme. A MW of 28,147 g/mol, calculated from the enzyme sequence was confirmed by MALDI-TOF analysis with a Mass error of ± 2.8 Da.
# The primary assay was developed to monitor the enzymatic activity of OXA-48 taking advantage of the spectroscopic properties of white microtiter plates (Optiplate-384, PerkinElmer, #6007290), as indicated by Zuck et al.. Nitrocefin is chromogenic substrate for beta-lactamases with λmax = 395 nm (yellow). Upon hydrolysis by OXA-48, nitrocefin yields (2R)-2-[(R)-carboxy[2-(thiophen-2-yl)acetamido]methyl]-5-[(E)-2-(2,4-dinitrophenyl)ethenyl]-3,6-dihydro-2H-1,3-thiazine-4-carboxylic acid, with increased absorbance properties at λmax = 495 nm. Spectroscopic features of the reaction product are exploited to quench the plate intrinsic fluorescence by absorbing the plate’s emission light, which can be monitored by exciting the reaction at 485 nm and recording the emission at 520 nm. Therefore, the primary assay for HTS was an ON-assay, in which compounds targeting OXA-48 were predicted to elicit an increase of the fluorescence signal.
# The primary assay was performed in reaction buffer (20 mM Hepes pH 8.0, 12.5 mM NaCl, 0.005% BSA, 0.0005% Brij-35) in the presence of 0.0014 ng/µL OXA-48 and 25 µM nitrocefin in a final volume of 20 µL/well in 384 MTP format. […]
# [2] = test system: E. coli ATCC BAA-2523; assay: MIC by broth microdilution, β-lactam-resistant strain producing OXA-48; format: cell-based, Escherichia coli; conditions: Escherichia coli, ATCCBAA2523, no β-lactam, BLI tested at 32 µg/mL, read-out: MIC, BLI alone
# Text: To evaluate the capability of restoring β-lactam susceptibility, the two most promising representatives of SC_2 (ID3) and SC_7 (ID2) were screened alone and in combination with ampicillin (AMP) and IMP against sensitive and resistant Gram-negative bacteria. Avibactam and tazobactam were also included in the MIC characterization as BLI reference compounds. Specifically, we used E. coli ATCC25922 as antibiotic-sensitive strain, while E. coli ATCC BAA-2523 and K. pneumoniae ATCC BAA-2524 as β-lactam-resistant bacteria, producing OXA-48 carbapenemase.
# Test compounds and tazobactam were tested at 32 µg/mL, while avibactam was applied at 4 µg/mL. […] Both antibiotics were selected for the combination study as they can be hydrolyzed by the target OXA-48 enzyme.
# MIC values were determined by the broth dilution method and interpreted using published guidelines described by Clinical and Laboratory Standards Institute (CLSI).
# All BLIs were dissolved in 100% DMSO and they were tested at a fixed concentration of 32 µg/mL and 1% of DMSO final concentration. Avibactam was used as reference β-lactamase inhibitor. All antimicrobials were prepared in line with CLSI susceptibility testing standards. AMP (USP # 1033000; batch no. K1M493) was dissolved at 5.12 mg/mL, IMP (USP # 1337809; batch no. R038R0) and avibactam (Biochem # NXL 104; batch no. 20180726) were dissolved at 1.28 mg/mL in the respective solvents recommended by CLSI (2). Solutions at 4X the final concentrations of the test range were made in Cation adjusted Mueller-Hinton broth (CA-MHB, BD # 212322; batch no. 6117994; Expiry date: 29.02.2020) by serial dilutions, and then diluted 2-fold with CA-MHB (for antimicrobials alone), or with the BLIs/avibactam (for combinations of new/reference inhibitors and antimicrobials). Moreover, all BLIs were tested alone at a fixed concentration of 32 μg/mL. The final concentration of DMSO in the test tubes was 1% for each different combination.
# 50 μL of each well were then transferred from the masterblock into 96-well plates to whom were then added 50 μL of the final inoculum. MIC tests were performed by broth microdilution in line with CLSI susceptibility testing standards. Bacterial inocula were prepared at ca. 1 × 10^6 CFU/mL by diluting 100-fold a 0.5 McFarland suspension in CA-MHB with TES (TREK Diagnostic Systems, Product code: T3462; Batch: 356347; Expiry date: 12-Jun-2019). 50 μL of antibacterial solutions at 2 × the final concentrations were diluted 2-fold with 50 μL of inoculum to give a final inoculum of ca. 5 × 10^5 CFU/mL and desired test concentrations of antibacterial agents. Test plates were incubated according to CLSI guidelines and read visually. MIC values corresponded to the first well with no visible growth.
Structure (SMILES),AC50 [1] [nM],MIC [2] [µg/mL]
O=C(O)c1ccc(C=Nn2c(S)nnc2-c2ccccc2)cc1 [ID1],1140,
CCc1ccc(-c2n[nH]c3nc(-c4ccc(C(=O)O)cc4)cc(C(=O)O)c23)cc1 [ID2],990,> 32
"C[C@]1(Cn2ccnn2)[C@H](C(=O)O)N2C(=O)C[C@H]2S1(=O)=O [tazobactam, reference compound]",840,> 32
